According to PubChem BioAssay AID1918953 (Molecular Pharmacology Branch, DTP, NCI, 2023):

Tested on: MDA-MB-231 complex spheroid viability
Assay: Anticancer human tumor MDA-MB-231/ATCC cell line growth inhibition;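 also: drug exposure lasted 7 days starting on day 3 of spheroid growth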
Conditions: for IC50: curve of first compound; for viability, T/C: stronger effect = lower value; active = viability on the fitted dose curve at most 10% of control; inactive = the rest
Procedure, shortened: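 Complex spheroids of tumor cells with HUVEC and human MSCs, exposed to iadademstat combined with other agents. Each agent tested in half-log steps from near clinical Cmax (else 10 microM top), DMSO ≤0.25%.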

[1] = second compound 0.1 µM, first compound 0.000316 µM
[2] = second compound 0.1 µM, first compound 0.001 µM
[3] = second compound 0.1 µM, first compound 0.00316 µM
[4] = second compound 0.1 µM, first compound 0.01 µM
[5] = second compound 0.1 µM, first compound 0.0316 µM
[6] = second compound 0.1 µM, first compound 0.1 µM
[7] = second compound 0.316 µM, first compound 0.000316 µM
[8] = second compound 0.316 µM, first compound 0.001 µM
[9] = second compound 0.316 µM, first compound 0.00316 µM
[10] = second compound 0.316 µM, first compound 0.01 µM
[11] = second compound 0.316 µM, first compound 0.0316 µM
[12] = second compound 0.316 µM, first compound 0.1 µM
[13] = second compound 1 µM, first compound 0.000316 µM
[14] = second compound 1 µM, first compound 0.001 µM
[15] = second compound 1 µM, first compound 0.00316 µM
[16] = second compound 1 µM, first compound 0.01 µM
[17] = second compound 1 µM, first compound 0.0316 µM
[18] = second compound 1 µM, first compound 0.1 µM
[19] = second compound 3.16 µM, first compound 0.000316 µM
[20] = second compound 3.16 µM, first compound 0.001 µM
[21] = second compound 3.16 µM, first compound 0.00316 µM
[22] = second compound 3.16 µM, first compound 0.01 µM
[23] = second compound 3.16 µM, first compound 0.0316 µM
[24] = second compound 3.16 µM, first compound 0.1 µM
[25] = second compound 10 µM, first compound 0.000316 µM
[26] = second compound 10 µM, first compound 0.001 µM
[27] = second compound 10 µM, first compound 0.00316 µM
[28] = second compound 10 µM, first compound 0.01 µM
[29] = second compound 10 µM, first compound 0.0316 µM
[30] = second compound 10 µM, first compound 0.1 µM

CC[C@@]1(O)C(=O)OCc2c1cc1n(c2=O)Cc2cc3c(CN(C)C)c(O)ccc3nc2-1 + NC1CC1c1ccc(-c2cccc(O)c2)cc1
0.845 nM: IC50 (second compound 0.316 µM)
1.63 nM: IC50 (second compound 0.1 µM)
inactive: viability, T/C [1] 72.6% | viability, T/C [2] 62.5% | viability, T/C [3] 33.1% | viability, T/C [4] 23.5% | viability, T/C [5] 27.3% | viability, T/C [6] 22% | viability, T/C [7] 61.8% | viability, T/C [8] 48.1% | viability, T/C [9] 28.9% | viability, T/C [10] 25.3% | viability, T/C [11] 26% | viability, T/C [12] 20.4% | viability, T/C [13] 62.3% | viability, T/C [14] 43.6% | viability, T/C [15] 32% | viability, T/C [16] 25.1% | viability, T/C [17] 24.6% | viability, T/C [18] 20.5% | viability, T/C [19] 57.2% | viability, T/C [20] 50.8% | viability, T/C [21] 29.4% | viability, T/C [22] 25.5% | viability, T/C [23] 25% | viability, T/C [24] 20.9% | viability, T/C [25] 49% | viability, T/C [26] 36.1% | viability, T/C [27] 24.3% | viability, T/C [28] 22.5% | viability, T/C [29] 22.3% | viability, T/C [30] 16.2%
1.04 nM: IC50 (second compound 3.16 µM)
0.672 nM: IC50 (second compound 1 µM)
< 0.316 nM: IC50 (second compound 10 µM)

CCc1c2c(nc3ccc(O)cc13)-c1cc3c(c(=O)n1C2)COC(=O)[C@]3(O)CC + NC1CC1c1ccc(-c2cccc(O)c2)cc1
inactive: viability, T/C (second compound 0.1 µM, first compound 0.000949 µM) 22.7% | viability, T/C (second compound 0.1 µM, first compound 0.003 µM) 19.7% | viability, T/C (second compound 0.1 µM, first compound 0.00949 µM) 18.3% | viability, T/C (second compound 0.316 µM, first compound 0.000949 µM) 22.5% | viability, T/C (second compound 0.316 µM, first compound 0.003 µM) 22% | viability, T/C (second compound 0.316 µM, first compound 0.00949 µM) 19.4% | viability, T/C (second compound 1 µM, first compound 0.000949 µM) 23.9% | viability, T/C (second compound 1 µM, first compound 0.003 µM) 20.1% | viability, T/C (second compound 1 µM, first compound 0.00949 µM) 17.1% | viability, T/C (second compound 3.16 µM, first compound 0.000949 µM) 22.4% | viability, T/C (second compound 3.16 µM, first compound 0.003 µM) 20.1% | viability, T/C (second compound 3.16 µM, first compound 0.00949 µM) 18.4% | viability, T/C (second compound 10 µM, first compound 0.000949 µM) 18.5% | viability, T/C (second compound 10 µM, first compound 0.003 µM) 20.4% | viability, T/C (second compound 10 µM, first compound 0.00949 µM) 13.1%
active: viability, T/C (second compound 0.1 µM, first compound 0.03 µM) 4.83% | viability, T/C (second compound 0.1 µM, first compound 0.0949 µM) 1.03% | viability, T/C (second compound 0.1 µM, first compound 0.3 µM) 0.74% | viability, T/C (second compound 0.316 µM, first compound 0.03 µM) 5.07% | viability, T/C (second compound 0.316 µM, first compound 0.0949 µM) 0.91% | viability, T/C (second compound 0.316 µM, first compound 0.3 µM) 0.54% | viability, T/C (second compound 1 µM, first compound 0.03 µM) 5.94% | viability, T/C (second compound 1 µM, first compound 0.0949 µM) 0.68% | viability, T/C (second compound 1 µM, first compound 0.3 µM) 0.61% | viability, T/C (second compound 3.16 µM, first compound 0.03 µM) 5.48% | viability, T/C (second compound 3.16 µM, first compound 0.0949 µM) 0.85% | viability, T/C (second compound 3.16 µM, first compound 0.3 µM) 0.54% | viability, T/C (second compound 10 µM, first compound 0.03 µM) 1.68% | viability, T/C (second compound 10 µM, first compound 0.0949 µM) 0.74% | viability, T/C (second compound 10 µM, first compound 0.3 µM) 0.5%
< 0.949 nM: IC50 (second compound 0.1 µM) | IC50 (second compound 0.316 µM) | IC50 (second compound 1 µM) | IC50 (second compound 3.16 µM) | IC50 (second compound 10 µM)

Cn1ncnc1C1c2n[nH]c(=O)c3cc(F)cc(c23)NC1c1ccc(F)cc1 (stereo not given) + NC1CC1c1ccc(-c2cccc(O)c2)cc1
0.479 nM: IC50 (second compound 10 µM)
51.5 nM: IC50 (second compound 3.16 µM)
49 nM: IC50 (second compound 0.316 µM)
48.1 nM: IC50 (second compound 1 µM)
inactive: viability, T/C [1] 86.3% | viability, T/C [2] 87.6% | viability, T/C [3] 74.2% | viability, T/C [4] 77% | viability, T/C [5] 62.4% | viability, T/C [6] 60.4% | viability, T/C [7] 64.4% | viability, T/C [8] 61% | viability, T/C [9] 60.6% | viability, T/C [10] 57.1% | viability, T/C [11] 56.2% | viability, T/C [12] 42.7% | viability, T/C [13] 62.4% | viability, T/C [14] 61.5% | viability, T/C [15] 57.2% | viability, T/C [16] 51.2% | viability, T/C [17] 53.5% | viability, T/C [18] 47.4% | viability, T/C [19] 66.6% | viability, T/C [20] 69.4% | viability, T/C [21] 67.4% | viability, T/C [22] 55.3% | viability, T/C [23] 49.2% | viability, T/C [24] 48.7% | viability, T/C [25] 51.9% | viability, T/C [26] 46.5% | viability, T/C [27] 43% | viability, T/C [28] 42.5% | viability, T/C [29] 33.1% | viability, T/C [30] 32.2%
> 100 nM: IC50 (second compound 0.1 µM)

CC(C)CC(NC(=O)C(Cc1ccccc1)NC(=O)c1cnccn1)B(O)O (stereo not given) + NC1CCC(NC2CC2c2ccccc2)CC1
inactive: viability, T/C [1] 106% | viability, T/C [2] 59.2% | viability, T/C [7] 107% | viability, T/C [8] 60.7% | viability, T/C [13] 104% | viability, T/C [14] 52% | viability, T/C [19] 70% | viability, T/C [20] 42.4% | viability, T/C [25] 58.9% | viability, T/C [26] 34.1%
1.23 nM: IC50 (second compound 0.316 µM)
1.05 nM: IC50 (second compound 1 µM)
0.478 nM: IC50 (second compound 10 µM)
0.729 nM: IC50 (second compound 3.16 µM)
active: viability, T/C [3] 1.89% | viability, T/C [4] 0.42% | viability, T/C [5] 0.53% | viability, T/C [6] 3.01% | viability, T/C [9] 1.73% | viability, T/C [10] 0.23% | viability, T/C [11] 0.28% | viability, T/C [12] 0.27% | viability, T/C [15] 3.37% | viability, T/C [16] 0.18% | viability, T/C [17] 0.38% | viability, T/C [18] 0.72% | viability, T/C [21] 1.87% | viability, T/C [22] 0.16% | viability, T/C [23] 0.08% | viability, T/C [24] 0.54% | viability, T/C [27] 0.9% | viability, T/C [28] 0.23% | viability, T/C [29] 1.54% | viability, T/C [30] 1.08%
1.2 nM: IC50 (second compound 0.1 µM)
